Patent publication US20230331817A1 (The Regents of the University of California, priority 2020, published 2023)
Where two headings read alike, the source gives them in different places.

Legend:
human plasmin = biological target: T1, human plasmin (Homo sapiens, UniProt P00747); assay: Stability study: plasmin inhibition after storage; format: biochemical; details: 0.59 mg/ml kept at 4° C., room temperature and 37° C. for a week
T1 construct: purchased Hematologic Technologies Inc (Essex Junction, VT)
Method: In stability studies, the KD1Y11T/R15K/L17R-KT sample (0.59 mg/ml) was kept at 4° C., at room temperature and at 37° C. for a week and its plasmin inhibition was studied each day. […] Reactions were carried out in TBS/BSA and 2 mM calcium. Human plasmin was incubated with various concentrations of rHuKD1-TM for 1 hour at room temperature in a 96-well microtiter plate. Synthetic substrate for plasmin was then added to a final concentration of 1 KM, and residual amidolytic activity was measured in a kinetic microplate reader (Molecular Devices). In Table 7 below, the apparent inhibition constant, Ki* was determined using the nonlinear regression data analysis program. Data are analyzed using an equation for a tight-binding inhibitor and Ki values are obtained by correcting for the effect of substrate concentration.

[1] = test system: primary human dermal skin fibroblasts; assay: Resazurin reduction (alamarBlue) viability assay, skin fibroblasts; format: cell-based
Method: (§1) Resazurin reduction assay (Fisher Scientific) was used to evaluate the potential cytotoxicity of antifibrinolytic agents toward primary human endothelial cells and skin fibroblasts. Phosphate buffer that was used to dissolve the samples was included as negative control. The assay is based on reduction of the non-fluorescent dye resazurin, to the highly fluorescent resorufin by viable cells. […] Briefly, cells in 96-well cell culture plates were treated with different concentrations of antifibrinolytic compounds (as described above). After 24 hours resazurin reagent was added to each well and the plates were incubated at 37° C. for 4 hours. Fluorescence was measured by the FLUOstar Omega Microplate Reader (BMG Labtech) using an excitation wavelength of 544 nm and an emission wavelength of 590 nm. Each assay was done in duplicate, with three replicates each. The viability was evaluated based on comparison with untreated cells.

DIP-δplasmin = assay: Surface plasmon resonance binding to DIP-δplasmin
Method: Active-site blocked δplasmin was generated by treating δplasmin with equal volumes of 1 M Tris-HCl, pH 8.0 and 1 M DFP (final concentration of 1 mM DFP) at room temperature for 20 minutes, followed by an incubation on ice for several hours. Additional equal volumes of 1M Tris-HCl, pH 8.0 and 1M DFP (final concentration of 2 mM) were added and the reaction was incubated at room temperature for 20 minutes and then over night at 4° C. The DFP inhibited Splamsin (DIP-δplasmin) was dialyzed against 20 mM HEPES pH 7.5, containing 150 mM NaCl and assayed for residual activity using S-2251 synthetic substrate hydrolysis. Based upon the residual activity, >99% of the δplasmin was inactivated.
(§2) Binding studies were performed on a Biacore T100 flow biosensor (Biacore, Uppsala, Sweden) at 25° C. DIP-δplasmin (˜98% purity using SDS-PAGE) or tPA (>98% purity using SDS-PAGE) was immobilized on carboxymethyl-dextran flow cell (CM5 sensor chips, GE Healthcare) using amine-coupling chemistry. Flow cell surfaces were activated with a mixture of 1-ethyl-3-(3-dimethylaminopropyl) carbodiimide and N-hydroxysulfosuccinimide for 5 min (flow rate 10 μl/min), after which the protein (20 μg/ml in 10 mM sodium acetate, pH 5.5) was injected onto the surface. Unreacted sites were blocked for 5 minutes with 1 M ethanolamine. The analyte KD1-Y11T/L17R-KT (100 to 2000 nM) was perfused through flow cells in HBS-P buffer (20 mM HEPES, pH 7.4, 100 mM NaCl, 0.005% (v/v) P20) at 10 μl/minutes for 6 minutes. After changing to HBS-P buffer without the protein, analyte dissociation was monitored for 10 min. Flow cells were regenerated with HBS-P containing 20 mM EACA. Data were corrected for nonspecific binding by subtracting signals obtained with the analyte infused through a flow cell without the coupled protein. Binding was analyzed with BIAevaluation software (Biacore) using a 1:1 binding model. Kd values were calculated from the quotient of the derived dissociation (kd) and association (ka) rate constants.

Plasma kallikrein (pKLK) = biological target: T2, Plasma kallikrein (pKLK) (Homo sapiens, UniProt P03952); assay: Protease inhibition assay, plasma kallikrein; format: biochemical
T2 construct: Plasma kallikrein (pKLK) was from Enzyme Research Laboratories; purchased Enzyme Research Laboratories (South Bend, IN)
Method: (§3) All reactions were carried out in TBS, pH 7.5 (50 mM Tris-HCL, pH 7.5, containing 100 mM NaCl), containing 0.1 mg bovine serum albumin/ml (TBS/BSA) and 2 mM Ca2+(TBS/BSA/Ca2+, pH 7.5). […] The inhibition constant, K* was determined using the nonlinear regression data analysis program Grafit.
(§4) Ki values were obtained by correcting for the effect of substrate according to Beith (38), using equation 2, where (S) is substrate concentration and KM is specific for each enzyme.

[2] = test system: tPA-induced lysis of clot formed in whole blood; assay: Thromboelastography, tPA-induced clot lysis in whole blood; format: biochemical
Method: The effect of different concentrations of KD1-Y11T/R15K/L17R-KCOOH (KD1TM) on fibrinolysis was evaluated with thromboelastography (TEG) using a TEG 5000 Thrombelastograph (Haemonetics Corp, Braintree, MA, USA). Each clot formation/lysis assay contained 300 μL of citrated whole blood, thrombin (0.15 μM, final concentration), tPA (2 nM, final concentration), CaCl2) (10 mM, final concentration) and various concentrations of KD1TM in TBS/BSA (50 mM Tris-HCl, 100 mM NaCl, containing 0.1 mg bovine serum albumin/mL) to make the final volume to 360 μL. Thrombin, tPA and CaCl2) were added last to initiate simultaneous clotting and fibrinolysis. […] Each experiment was performed at least 60 min after the maximal amplitude was reached to establish the LY60 value. TEG Analytical Software (version 4.2.3; Haemonetics Corporation, Braintree, MA, USA) was used to calculate the time to clot initiation (R), maximal clot strength (maximal amplitude (MA), which was directly related to the shear elastic modulus strength, G), and percent lysis 60 min after MA (LY60).

HUVEC = format: cell-based, human
Method: as §1

[3] = test system: tPA-induced plasma clot fibrinolysis; assay: Fibrinolysis (clot lysis) assay in normal pooled plasma; format: biochemical; details: human NPP
Method: The method of Sperzel and Huetter (40) was followed with minor modifications as outlined earlier (32,41). Briefly, IIa was used to initiate fibrin formation in NPP and the lysis of the formed clot (fibrinolysis) was induced by simultaneous addition of tPA. Clot formation and lysis were monitored with a Molecular Devices microplate reader (SPECTRAmax 190) measuring the optical density at 405 nm. […] Two hundred twenty-five μL of this mixture was then added to 25 μL IIa and tPA in TBS/BSA containing 25 mM CaCl2). In the 250 μL final volume, concentration of IIa was 0.15 μg/ml and that of tPA was 1 μg/ml. Under control conditions (zero tPA and zero test compound), OD405 increased immediately indicating clotting followed by an extremely slow decrease representing fibrinolysis. As clotting was almost complete after 5 minutes, fibrinolysis induced by tPA was evaluated as a relative decrease of OD405 up to 60 minutes.
Addition of thrombin (IIa) to human normal pooled plasma (NPP) caused fibrin formation, which is reflected by the increase in OD405 (black curve, FIGS. 3A and 3B). Simultaneous addition of tPA caused initial clot formation followed by dissolution of fibrin induced by tPA-mediated conversion of plasminogen to plasmin (black curve with closed circles, FIGS. 3A and 3B); the midpoint of fibrinolysis was ˜8 min in each case. Both antifibrinolytic agents inhibited fibrinolysis in a dose-dependent manner.

human FXIa = biological target: T3, human FXIa (Homo sapiens, UniProt P03951); assay: Protease inhibition assay, factor XIa; format: biochemical; details: up to 3 μM inhibitor; 1 nM FXIa; triplicate
T3 construct: Purified human FXIa, thrombin (IIa) and plasmin were purchased; purchased Hematologic Technologies Inc (Essex Junction, VT)
Method: as §3, §4

tPA = biological target: T4, tPA (Homo sapiens, UniProt P00750); assay: Surface plasmon resonance binding to tPA; details: 25° C; 1:1 binding model
T4 construct: purchased Genentech (South San Francisco, CA)
Method: as §2

mouse injury models = details: liver laceration model and tail amputation model; cited from earlier work
FVIIa/sTF = biological target: T5, FVIIa/sTF (Homo sapiens, UniProt P08709); assay: Protease inhibition assay, FVIIa/soluble tissue factor; format: biochemical; details: up to 3 μM inhibitor; 20 nM FVIIa/sTF; triplicate
T5 construct: human factor VIIa (FVIIa) was prepared as described previously (34)
Method: as §3, §4

[4] = test system: plasmin induced lysis of clot formed in whole blood; assay: Thromboelastography, plasmin induced clot lysis in whole blood; format: biochemical, human
Method: Plasmin and CaCl2) were added last to initiate simultaneous clotting and fibrinolysis. […] The thromboelastograph was calibrated each day and each inhibitor concentration was tested in duplicate. TEG Analytical Software (version 4.2.2; Haemonetics Corporation, Braintree, MA) was used to calculate the time to clot initiation (R), maximal clot strength (maximal amplitude (MA), which was directly related to the shear elastic modulus strength, G), and percent lysis 60 minutes after MA (LY60) (42).

[5] = humans; cited from earlier work
[6] = rats and dogs; cited from earlier work
[7] = test system: primary human dermal skin fibroblasts; assay: Caspase 3/7 assay, skin fibroblasts; format: cell-based; details: 24 hours; 30 μM KD1TM, 30 μM BPTI, 60 mM EACA, 30 mM TXA
Method: The influence of antifibrinolytic agents on apoptosis in cells was detected using the Caspase-Glo 3/7 Assay kit (Promega). Caspase 3 and 7 are activated in cells that undergo apoptosis. The assay provides a luminogenic substrate for caspase 3 and 7. Enzymatic activity leads to luminescence, which is proportional to the amount of caspase activity present. Cells were seeded in 96-well plates and treated with antifibrinolytic agents or phosphate buffer (solvent control). Taxol was included as positive control. After 24 hours of treatment, caspase reagent was added to each well, mixed and incubated for 1 hour at room temperature. Luminescence was measured using the FLUOstar Omega Microplate Reader (BMG Labtech).

[8] = NHB + […] plasmin, inhibitor 5 μM

T4 sequence (P00750 36-562): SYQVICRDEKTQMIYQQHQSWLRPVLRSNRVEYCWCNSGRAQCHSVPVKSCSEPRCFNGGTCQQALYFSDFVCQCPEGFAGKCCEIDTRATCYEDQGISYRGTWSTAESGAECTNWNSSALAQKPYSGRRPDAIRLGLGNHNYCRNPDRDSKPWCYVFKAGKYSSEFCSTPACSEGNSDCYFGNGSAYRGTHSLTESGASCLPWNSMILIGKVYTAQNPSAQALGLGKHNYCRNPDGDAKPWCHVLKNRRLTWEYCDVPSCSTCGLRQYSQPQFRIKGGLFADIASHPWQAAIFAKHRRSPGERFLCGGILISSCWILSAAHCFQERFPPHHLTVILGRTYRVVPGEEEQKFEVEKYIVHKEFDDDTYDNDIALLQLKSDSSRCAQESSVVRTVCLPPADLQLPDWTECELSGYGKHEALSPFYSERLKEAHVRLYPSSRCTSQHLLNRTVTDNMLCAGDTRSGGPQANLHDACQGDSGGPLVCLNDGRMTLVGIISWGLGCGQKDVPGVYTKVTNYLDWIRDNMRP
T2 sequence (P03952 20-390 limits assumed): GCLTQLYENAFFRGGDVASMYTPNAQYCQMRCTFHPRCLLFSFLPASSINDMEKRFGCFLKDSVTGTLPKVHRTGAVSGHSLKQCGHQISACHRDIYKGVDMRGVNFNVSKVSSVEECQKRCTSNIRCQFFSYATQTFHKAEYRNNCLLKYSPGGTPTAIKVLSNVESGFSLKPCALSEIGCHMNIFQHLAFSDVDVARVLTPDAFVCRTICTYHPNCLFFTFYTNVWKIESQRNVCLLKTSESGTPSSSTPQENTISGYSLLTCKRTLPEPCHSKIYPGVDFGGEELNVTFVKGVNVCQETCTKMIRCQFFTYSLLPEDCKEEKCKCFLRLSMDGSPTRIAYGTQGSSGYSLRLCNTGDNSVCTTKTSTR
T2 sequence (P03952 391-638 limits assumed): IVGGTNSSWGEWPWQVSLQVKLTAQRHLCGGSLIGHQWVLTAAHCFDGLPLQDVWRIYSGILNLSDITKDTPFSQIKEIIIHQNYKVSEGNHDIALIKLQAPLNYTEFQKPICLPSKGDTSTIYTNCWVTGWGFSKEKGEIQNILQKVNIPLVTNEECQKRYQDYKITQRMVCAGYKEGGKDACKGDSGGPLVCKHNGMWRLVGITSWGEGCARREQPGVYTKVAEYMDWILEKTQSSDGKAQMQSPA
T5 sequence (P08709 213-466 limits assumed): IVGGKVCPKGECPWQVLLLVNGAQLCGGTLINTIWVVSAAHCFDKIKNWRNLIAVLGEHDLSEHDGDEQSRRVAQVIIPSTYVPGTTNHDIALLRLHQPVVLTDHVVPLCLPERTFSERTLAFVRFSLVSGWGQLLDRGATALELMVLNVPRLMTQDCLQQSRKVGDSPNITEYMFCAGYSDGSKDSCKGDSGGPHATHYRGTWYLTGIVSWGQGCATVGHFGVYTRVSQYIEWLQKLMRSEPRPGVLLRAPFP
T5 sequence (P08709 61-212 limits assumed): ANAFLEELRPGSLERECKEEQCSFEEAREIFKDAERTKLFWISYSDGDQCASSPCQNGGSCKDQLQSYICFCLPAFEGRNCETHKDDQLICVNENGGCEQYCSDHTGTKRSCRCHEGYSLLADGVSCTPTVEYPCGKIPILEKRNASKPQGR
T5 sequence (P13726 33-251 partner limits assumed): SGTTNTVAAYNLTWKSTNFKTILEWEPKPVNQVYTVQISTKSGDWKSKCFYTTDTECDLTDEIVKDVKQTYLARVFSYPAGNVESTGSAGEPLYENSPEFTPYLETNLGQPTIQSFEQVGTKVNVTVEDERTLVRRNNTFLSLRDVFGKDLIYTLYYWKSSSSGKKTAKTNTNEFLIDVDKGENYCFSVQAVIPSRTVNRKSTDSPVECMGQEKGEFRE
T1 sequence (P00747 97-580 limits assumed): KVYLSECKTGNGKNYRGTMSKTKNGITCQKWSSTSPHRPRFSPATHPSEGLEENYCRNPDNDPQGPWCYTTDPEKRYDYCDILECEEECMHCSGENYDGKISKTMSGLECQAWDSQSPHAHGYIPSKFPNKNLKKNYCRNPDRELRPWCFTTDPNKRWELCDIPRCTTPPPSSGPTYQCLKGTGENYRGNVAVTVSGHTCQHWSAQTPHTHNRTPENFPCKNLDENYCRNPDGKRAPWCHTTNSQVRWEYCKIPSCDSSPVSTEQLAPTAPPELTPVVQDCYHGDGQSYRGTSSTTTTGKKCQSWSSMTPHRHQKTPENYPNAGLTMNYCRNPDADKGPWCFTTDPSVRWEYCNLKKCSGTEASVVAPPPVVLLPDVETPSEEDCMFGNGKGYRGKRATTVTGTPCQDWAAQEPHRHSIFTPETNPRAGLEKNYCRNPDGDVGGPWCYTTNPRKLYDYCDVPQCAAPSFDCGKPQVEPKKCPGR
T1 sequence (P00747 581-810 limits assumed): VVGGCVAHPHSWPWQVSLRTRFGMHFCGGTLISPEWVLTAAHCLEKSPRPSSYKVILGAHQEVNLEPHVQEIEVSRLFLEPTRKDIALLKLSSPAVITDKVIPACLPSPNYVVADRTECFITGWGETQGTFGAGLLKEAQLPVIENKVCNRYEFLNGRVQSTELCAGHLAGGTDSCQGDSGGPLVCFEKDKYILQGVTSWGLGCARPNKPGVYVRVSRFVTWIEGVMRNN
T3 sequence (P03951 19-387 limits assumed): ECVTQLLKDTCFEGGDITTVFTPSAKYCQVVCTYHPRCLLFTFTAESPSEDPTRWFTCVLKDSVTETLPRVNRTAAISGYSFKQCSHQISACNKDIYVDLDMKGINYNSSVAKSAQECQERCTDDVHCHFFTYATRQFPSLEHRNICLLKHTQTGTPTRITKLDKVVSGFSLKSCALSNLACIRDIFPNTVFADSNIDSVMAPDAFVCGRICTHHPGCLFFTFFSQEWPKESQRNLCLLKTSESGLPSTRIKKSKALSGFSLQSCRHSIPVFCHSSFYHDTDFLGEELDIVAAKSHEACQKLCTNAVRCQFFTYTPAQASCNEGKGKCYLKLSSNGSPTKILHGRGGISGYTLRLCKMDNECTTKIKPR
T3 sequence (P03951 388-625 limits assumed): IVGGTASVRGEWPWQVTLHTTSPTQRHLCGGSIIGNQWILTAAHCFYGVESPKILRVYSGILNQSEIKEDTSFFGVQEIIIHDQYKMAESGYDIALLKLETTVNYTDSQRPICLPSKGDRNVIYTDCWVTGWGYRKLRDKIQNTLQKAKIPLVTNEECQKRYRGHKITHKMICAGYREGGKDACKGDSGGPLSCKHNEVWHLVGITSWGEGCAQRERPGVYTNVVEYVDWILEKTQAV

Compound: KD1Y11T/R15K/L17R-KT: 60-residue triple mutant of Kunitz domain1 of human TFPI-2, SEQ ID NO: 1, C-terminal IEK, expressed in Pichia (NAEICLLPLDTGPCKARLLRYYYDRYTQSCRQFLYGGCEGNANNFYTWEACDDACWRIEK)
- Stability of plasmin inhibition on storage (human plasmin): plasmin inhibitory properties are not altered
- Fibroblast cell viability (FIG. 5) [1]: not significantly different from the untreated cells
- Kd (DIP-δplasmin; read-out: Affinity of binding to the plasmin kringle domain): ~0.04 µM
- Concentration until which kallikrein inhibition is not observed (Plasma kallikrein (pKLK)): 25 µM
- G ([2]; 2 nM tPA + 2 μM KD1TM, […] thrombin): 3525.4 dyn/cm^2
- MA ([2]; 2 nM tPA + 4 μM KD1TM, […] thrombin): 44.2 mm
- Clot strength MA restored, relative to blood without tPA ([2]; 2 nM tPA, 4 μM KD1TM): 98%
- G restored, relative to blood without tPA ([2]; 2 nM tPA, 4 μM KD1TM): 96%
- HUVEC viability (FIG. 4) (HUVEC): not significantly different from the untreated cells
- Fibrinolysis midpoint (Example 2) ([3]; 0.5 μM inhibitor + tPA, ˜8 min without inhibitor): ~15 min
- Effect on tPA induced fibrinolysis (Example 2) ([3]; 3 μM inhibitor + tPA): completely prevented tPA induced fibrinolysis
- Effect on clot formation or fibrinolysis in the absence of tPA (Example 2) ([3]; 3 μM inhibitor, no tPA): had no effect on clot formation or fibrinolysis

Compound: KD1-Y11T/L17R-KT: 60-residue double mutant (Y11T/L17R) of Kunitz domain1 of human TFPI-2 with C-terminal IEK (NAEICLLPLDTGPCRARLLRYYYDRYTQSCRQFLYGGCEGNANNFYTWEACDDACWRIEK)
- Inhibition profile with FXIa (human FXIa): No inhibition was observed
- Kd (tPA): ~0.035 µM
- koff, tPA (tPA): 1.05±0.7×10^−4 s^−1
- kon, tPA (tPA): 2.91±0.4×10^3 M^−1s^−1
- Prevention of blood loss (mouse injury models): successful in preventing blood loss
- Inhibition profile with FVIIa/sTF (FVIIa/sTF): No inhibition was observed
- koff, DIP-δplasmin (DIP-δplasmin; 25° C, 1:1 binding model): 7.13±0.9×10^−5 s^−1
- kon, DIP-δplasmin (DIP-δplasmin; 25° C, 1:1 binding model): 1.49±0.3×10^3 M^−1s^−1
- Kd (DIP-δplasmin; 25° C, 1:1 binding model, read-out: Kd, DIP-δplasmin (kringle domain of plasminogen/plasmin)): ~0.05 µM
- Inhibition profile with pKLK (Plasma kallikrein (pKLK); up to 3 μM inhibitor, 1 nM pKLK, triplicate): No inhibition was observed
- G [4, 8]: ~3004 dyn/cm^2
- LY60 [4, 8]: ~12%
- Clot strength MA restored, relative to blood without plasmin ([4]; […] plasmin, inhibitor 5 μM): ~80%
- G restored, relative to blood without plasmin ([4]; […] plasmin, inhibitor 5 μM): ~65%
- G restored, relative to blood without plasmin ([4]; […] plasmin, inhibitor 7.5 μM): ~70%
- MA restored, relative to blood without plasmin ([4]; […] plasmin, inhibitor 7.5 μM): ~83%
- Max OD405 ([3]; 0.5 μM inhibitor + tPA): 1.54 ± 0.14
- OD405 at 60 min ([3]; 0.5 μM inhibitor + tPA): 0.85 ± 0.13
- Fibrinolysis midpoint time ([3]; 1.0 μM inhibitor + tPA): 27 ± 1.1 min
- Max OD405 ([3]; 1.0 μM inhibitor + tPA): 1.54 ± 0.11
- OD405 at 60 min ([3]; 1.0 μM inhibitor + tPA): 0.84 ± 0.12
- Fibrinolysis midpoint time ([3]; 2.0 μM inhibitor + tPA): >60 min
- Max OD405 ([3]; 2.0 μM inhibitor + tPA): 1.58 ± 0.09
- OD405 at 60 min ([3]; 2.0 μM inhibitor + tPA): 1.35 ± 0.06
- Fibrinolysis midpoint time ([3]; 3.0 μM inhibitor + tPA): >60 min
- Max OD405 ([3]; 3.0 μM inhibitor + tPA): 1.71 ± 0.10
- OD405 at 60 min ([3]; 3.0 μM inhibitor + tPA): 1.57 ± 0.08
- OD405 at 60 min ([3]; […] inhibitor + tPA): 0.86 ± 0.15

Compound: NC[C@H]1CC[C@H](C(=O)O)CC1 [TXA, tranexamic acid]
- half-life [5]: ~2 h
- Cell viability, primary human skin fibroblasts (Example 1) ([1]; 24 hours, KD1-Y11T/L17R-KT and aprotinin 0.1 μM-30 μM, EACA 1-60 mM, TXA 0.2-30 mM): equally unchanged
- Fibroblast cell viability (FIG. 5) ([1]; 24 hours, indicated concentrations, p>0.05): not significantly different from the untreated cells
- plasma half-life [6]: ~2 h
- Apoptosis, caspase-3/7 activity, skin fibroblasts (FIG. 6) [7]: not in fibroblasts
- HUVEC viability (FIG. 4) (HUVEC): not significantly different from the untreated cells
